Measurements taken from ChEMBL document CHEMBL5291721, “A preclinical secondary pharmacology resource illuminates target-adverse drug reaction associations of marketed drugs” (Nat Commun, 2023).

How the values were obtained:
[1] = target: T1, Retinoic acid receptor beta (Homo sapiens, UniProt P10826); format: functional, cell-based
T1 sequence (P10826 whole entry): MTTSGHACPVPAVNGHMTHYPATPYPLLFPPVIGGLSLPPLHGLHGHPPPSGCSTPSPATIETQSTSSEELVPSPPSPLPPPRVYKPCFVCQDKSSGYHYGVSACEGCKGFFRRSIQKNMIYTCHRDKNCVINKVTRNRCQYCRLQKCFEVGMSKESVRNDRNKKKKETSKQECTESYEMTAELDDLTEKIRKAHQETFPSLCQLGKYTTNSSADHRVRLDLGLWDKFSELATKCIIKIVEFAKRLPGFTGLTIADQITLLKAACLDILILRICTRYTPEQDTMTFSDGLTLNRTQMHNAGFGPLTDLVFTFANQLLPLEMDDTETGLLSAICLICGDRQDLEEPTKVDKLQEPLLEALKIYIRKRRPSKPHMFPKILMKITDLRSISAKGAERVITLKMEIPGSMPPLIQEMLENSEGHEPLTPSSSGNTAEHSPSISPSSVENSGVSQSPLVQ

[2] = target: T2, Oxysterols receptor LXR-alpha (Homo sapiens, UniProt Q13133); format: functional
T2 sequence (Q13133 whole entry): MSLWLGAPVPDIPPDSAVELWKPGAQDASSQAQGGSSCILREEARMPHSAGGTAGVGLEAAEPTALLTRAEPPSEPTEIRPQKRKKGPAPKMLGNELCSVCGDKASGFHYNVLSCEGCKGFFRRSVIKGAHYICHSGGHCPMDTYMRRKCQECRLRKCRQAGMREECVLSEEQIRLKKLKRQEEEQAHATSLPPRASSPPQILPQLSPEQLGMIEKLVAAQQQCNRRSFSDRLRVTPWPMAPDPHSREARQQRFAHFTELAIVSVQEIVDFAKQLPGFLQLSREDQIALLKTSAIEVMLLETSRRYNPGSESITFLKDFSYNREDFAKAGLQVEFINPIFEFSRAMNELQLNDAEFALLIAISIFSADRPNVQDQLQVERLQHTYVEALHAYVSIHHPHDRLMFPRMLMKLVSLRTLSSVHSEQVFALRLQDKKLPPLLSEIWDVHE

[3] = target: T2, Oxysterols receptor LXR-alpha; format: functional; remark: listed apart in the source
[4] = target: T3, Retinoic acid receptor gamma (Homo sapiens, UniProt P13631); format: functional, cell-based
T3 sequence (P13631 whole entry): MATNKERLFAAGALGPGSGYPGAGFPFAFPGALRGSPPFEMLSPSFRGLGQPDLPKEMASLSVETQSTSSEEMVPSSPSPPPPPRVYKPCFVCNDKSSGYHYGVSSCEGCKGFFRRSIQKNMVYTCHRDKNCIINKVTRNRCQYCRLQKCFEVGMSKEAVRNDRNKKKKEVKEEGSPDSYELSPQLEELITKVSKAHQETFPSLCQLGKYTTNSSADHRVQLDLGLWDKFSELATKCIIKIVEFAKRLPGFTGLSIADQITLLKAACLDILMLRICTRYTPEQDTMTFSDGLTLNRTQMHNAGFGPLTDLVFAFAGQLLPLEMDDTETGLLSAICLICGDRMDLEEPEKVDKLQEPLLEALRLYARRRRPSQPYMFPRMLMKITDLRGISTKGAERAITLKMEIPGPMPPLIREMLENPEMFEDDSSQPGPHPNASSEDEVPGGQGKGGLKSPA

Bile acid receptor = target: T4, Bile acid receptor (Homo sapiens, UniProt Q96RI1); format: functional
T4 sequence (Q96RI1 whole entry): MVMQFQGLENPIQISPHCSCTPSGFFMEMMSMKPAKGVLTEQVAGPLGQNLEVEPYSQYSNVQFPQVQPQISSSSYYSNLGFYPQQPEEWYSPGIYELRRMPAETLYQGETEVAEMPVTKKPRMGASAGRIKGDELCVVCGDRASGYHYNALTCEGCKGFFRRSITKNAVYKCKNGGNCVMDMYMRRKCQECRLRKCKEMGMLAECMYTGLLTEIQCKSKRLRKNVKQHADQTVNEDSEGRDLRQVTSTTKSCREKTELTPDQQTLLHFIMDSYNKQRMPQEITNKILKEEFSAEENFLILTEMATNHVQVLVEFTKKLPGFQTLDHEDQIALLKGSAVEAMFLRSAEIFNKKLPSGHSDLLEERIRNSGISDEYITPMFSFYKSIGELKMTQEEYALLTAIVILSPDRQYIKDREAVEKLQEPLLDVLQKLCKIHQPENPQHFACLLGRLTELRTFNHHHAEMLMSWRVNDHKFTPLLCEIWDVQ

Androgen receptor = target: T5, Androgen receptor (Rattus norvegicus, UniProt P15207)
T5 sequence (P15207 whole entry): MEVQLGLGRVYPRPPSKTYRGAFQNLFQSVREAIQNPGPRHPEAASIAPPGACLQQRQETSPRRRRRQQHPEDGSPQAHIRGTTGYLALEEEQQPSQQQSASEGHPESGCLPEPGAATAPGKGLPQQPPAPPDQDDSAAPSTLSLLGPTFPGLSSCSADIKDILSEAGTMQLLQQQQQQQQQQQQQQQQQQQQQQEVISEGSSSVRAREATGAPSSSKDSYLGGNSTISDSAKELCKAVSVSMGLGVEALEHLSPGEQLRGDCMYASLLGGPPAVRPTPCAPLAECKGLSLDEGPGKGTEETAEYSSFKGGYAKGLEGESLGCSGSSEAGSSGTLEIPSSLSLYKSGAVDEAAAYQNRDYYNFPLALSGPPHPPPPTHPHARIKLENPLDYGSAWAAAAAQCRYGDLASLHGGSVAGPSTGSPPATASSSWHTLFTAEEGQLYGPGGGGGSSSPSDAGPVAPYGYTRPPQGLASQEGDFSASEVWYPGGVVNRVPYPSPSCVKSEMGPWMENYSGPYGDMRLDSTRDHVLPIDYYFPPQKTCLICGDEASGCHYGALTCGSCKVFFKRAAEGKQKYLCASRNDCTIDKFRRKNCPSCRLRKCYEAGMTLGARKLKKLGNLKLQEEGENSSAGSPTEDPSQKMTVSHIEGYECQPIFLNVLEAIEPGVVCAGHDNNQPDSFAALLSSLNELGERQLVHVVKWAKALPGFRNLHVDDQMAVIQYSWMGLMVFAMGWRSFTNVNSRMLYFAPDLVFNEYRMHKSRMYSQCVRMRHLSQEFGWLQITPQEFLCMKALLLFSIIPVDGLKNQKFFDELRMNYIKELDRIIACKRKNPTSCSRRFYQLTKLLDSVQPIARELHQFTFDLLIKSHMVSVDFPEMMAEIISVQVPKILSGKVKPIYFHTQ

[5] = target: Hydroxycarboxylic acid receptor 2 (Homo sapiens, UniProt Q8TDS4)
Hydroxycarboxylic acid receptor 2, sequence (Q8TDS4 whole entry): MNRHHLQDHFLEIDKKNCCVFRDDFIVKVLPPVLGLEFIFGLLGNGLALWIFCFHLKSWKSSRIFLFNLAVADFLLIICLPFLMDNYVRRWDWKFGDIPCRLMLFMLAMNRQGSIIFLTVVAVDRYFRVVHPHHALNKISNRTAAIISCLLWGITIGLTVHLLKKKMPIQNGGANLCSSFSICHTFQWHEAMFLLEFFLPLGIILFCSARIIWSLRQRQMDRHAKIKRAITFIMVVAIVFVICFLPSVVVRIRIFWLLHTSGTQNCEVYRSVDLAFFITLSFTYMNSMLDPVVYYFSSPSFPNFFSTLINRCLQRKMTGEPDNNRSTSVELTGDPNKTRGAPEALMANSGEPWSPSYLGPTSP
Note: assay procedure not described here.

Row | AC50 [1] [µM] | AC50 [2] [µM] | AC50 [3] [µM] | AC50 [4] [µM] | AC50 (Bile acid receptor) [µM] | AC50 (Androgen receptor) [µM] | AC50 [5] [µM] | Compound
1 | > 30 | > 30 | > 30 | > 30 | 4 | – | – | CC(/C=C1\SC(=S)N(CC(=O)O)C1=O)=C\c1ccccc1
2 | 18 | 19 | > 30 | 9.1 | > 30 | > 30 | – | CC1(C)S[C@@H]2[C@H](NC(=O)[C@H](N)c3ccc(O)cc3)C(=O)N2[C@H]1C(=O)O [AMOXICILLIN]
3 | – | – | – | – | – | > 30 | – | O=C1CN2Cc3c(ccc(Cl)c3Cl)N=C2N1 [ANAGRELIDE]
4 | – | – | – | – | – | > 10 | – | CCc1oc2ccccc2c1C(=O)c1cc(Br)c(O)c(Br)c1 [BENZBROMARONE]
5 | – | – | – | – | – | > 30 | – | [H]/N=C(\N/C(=N/[H])NCCCCCCNC(=N)NC(=N)Nc1ccc(Cl)cc1)Nc1ccc(Cl)cc1 [CHLORHEXIDINE]
6 | – | – | – | – | – | – | > 10 | Clc1cccc(Cl)c1N=C1NCCN1 [CLONIDINE]
7 | – | – | – | – | – | – | > 10 | COc1ccnc(C[S+]([O-])c2nc3ccc(OC(F)F)cc3[nH]2)c1OC (configuration not stated) [PANTOPRAZOLE]
8 | > 30 | > 30 | > 30 | > 30 | 27 | – | – | CCOc1cc(CC(=O)N[C@@H](CC(C)C)c2ccccc2N2CCCCC2)ccc1C(=O)O [REPAGLINIDE]

Row | Compound | AC50 [1] [µM] | AC50 [2] [µM] | AC50 [3] [µM] | AC50 [4] [µM] | AC50 (Bile acid receptor) [µM] | AC50 (Androgen receptor) [µM] | AC50 [5] [µM]
9 | CNC(=O)c1cc(Oc2ccc(NC(=O)Nc3ccc(Cl)c(C(F)(F)F)c3)c(F)c2)ccn1 [REGORAFENIB] | > 30 | > 30 | > 30 | 9 | > 30 | – | –
10 | CC(=O)S[C@@H]1CC2=CC(=O)CC[C@]2(C)[C@H]2CC[C@@]3(C)[C@@H](CC[C@@]34CCC(=O)O4)[C@H]12 [SPIRONOLACTONE] | – | – | – | – | – | – | > 10
